This is an account of results in the METLIN SMRT retention time set (Domingo-Almenara et al. 2019).

The series can be described thus: gradient 5% acetonitrile 3 min, to 50% in 2 min, to 85% in 15 min, held 3 min, 100 µL/min. The note with it: column: Zorbax Extend-C18 2.1 x 50 mm; eluents: water / acetonitrile, 0.1% formic acid. Put shortly:
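In both positive and negative ionization mode, a quadrupole time-of-flight mass spectrometer coupled to HPLC analyzed pure standards run in mixtures of ~100 molecules. The Zorbax Extend-C18 column (2.1 × 50 mm, 1.8 μm) was operated at 100 μL/min with water and acetonitrile, each containing 0.1% formic acid. The dead volume was 40 μL and the dwell volume 900 μL. Retention time came from adduct peaks that were computationally picked and individually inspected by hand.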
For the compound `CN(C)c1ccc(C(=O)N2CCN(C(=O)c3nnn4c3COC(c3ccc(Cl)cc3)C4)CC2)cc1` (centres undefined), the RP-LC retention time is 935 s.

Compound `O=C1NC(C(=O)NC2CCCCC2)Cn2cccc21` (centres undefined) had an RP-LC retention time of 651 s.

For `CC(C)NC(=O)c1cccc2c1CCN2C(=O)C1CC1`, the RP-LC retention time turned out to be 700 s.

In the case of `Cc1ccnc(NS(=O)(=O)c2ccc(NC(=O)c3ccc(-n4cccn4)nn3)cc2)n1`, the RP-LC retention time was 686 s.

As for `Cc1ccc(N2CCN(S(=O)(=O)c3cc4c(s3)CCN(C(=O)C3CC3)C4)CC2)cc1`, the RP-LC retention time worked out at 1020 s.

For `O=S(=O)(c1ccc2nc(N3CCN(c4ccccn4)CC3)ccc2c1)N1CCCCC1`, the RP-LC retention time turned out to be 649 s.

`O=C(Nc1ccc(F)cc1F)c1c(O)c2cccnc2n(-c2ccccc2)c1=O` displayed an RP-LC retention time of 1250 s.

For `Cc1ccc(C2Cn3nnc(C(=O)N4CCN(C(=O)c5ccoc5)CC4)c3CO2)cc1` (centres undefined), the RP-LC retention time worked out at 815 s.

The compound `Cc1noc(C)c1-c1ccc(S(=O)(=O)N2CCC(C)CC2)cc1` had an RP-LC retention time of 1020 s.

Compound `NC(=O)c1cn(Cc2c(F)cccc2F)nn1` yielded an RP-LC retention time of 684 s.

`Cc1csc(-c2cc(S(=O)(=O)N3CCCCC3)cn2CC(=O)N2CCCCC2)n1` had an RP-LC retention time of 1020 s.

In turn, `O=C1CC(c2nc(-c3ccc(Cl)cc3)no2)CN1c1ccc(F)cc1` (centres undefined) showed an RP-LC retention time of 1000 s.

`O=C1CCN(C(=O)C2CCN(C(=O)c3ccco3)CC2)CCCCCCN1` gave an RP-LC retention time of 623 s.

`CSc1nnc(-c2nn(C)c3c2CN(C(=O)CCc2ccccc2)CC3)n1C` came in with an RP-LC retention time of 719 s.

The compound `Cc1ccc(NC(=O)Cn2c(=O)nc(N3CCC(C)CC3)c3ccccc32)cc1C` registered an RP-LC retention time of 909 s.

Compound `O=C(NCc1ccc(Cl)cc1)C1CCCN(c2nn3c(=O)c4c(nc3s2)CCCC4)C1` (centres undefined) gave an RP-LC retention time of 808 s.

The compound `CCn1cc(S(=O)(=O)N2CCCCC2c2nc(-c3ccncc3)n[nH]2)cn1` (centres undefined) registered an RP-LC retention time of 695 s.

`O=C(Cn1nc2c3cc(-c4ccccc4)nn3ccn2c1=O)Nc1cccc(Br)c1` had an RP-LC retention time of 952 s.

`O=C(NCc1ccccc1Cl)c1cn2c(n1)CCCC2`: the RP-LC retention time stood at 613 s.

Compound `COc1ccc(Br)cc1S(=O)(=O)NCCCn1ccnc1` gave an RP-LC retention time of 568 s.

In turn, `CCCn1ncc(N2CCC(C(=O)NC(C)c3cccs3)CC2)cc1=O` (centres undefined) yielded an RP-LC retention time of 716 s.

Compound `CC(C)NC(=O)c1ccc(OCC2CCCN2C(=O)c2cccs2)cc1` (centres undefined) returned an RP-LC retention time of 818 s.

For `O=C(NCc1cccnc1-c1ccccc1)c1cccc(Br)c1`, the RP-LC retention time was 692 s.

As to `COC(=O)c1c(C)sc(-c2c(-c3ccc(Br)cc3)[nH]c3[nH]c(=O)[nH]c(=O)c23)c1O`, the RP-LC retention time was 791 s.

Consider `CCN1CCCn2cc(S(=O)(=O)Nc3cc(C)cc(C)c3)cc2C1=O`, for which the RP-LC retention time came out at 768 s.

Compound `O=C(NCCn1c(=O)n(Cc2ccccc2)c2cccnc21)C1CCCC1` had an RP-LC retention time of 760 s.

`Cn1cccc1CN(C(=O)C1CCC1)C1CC1` returned an RP-LC retention time of 796 s.

On to `O=C(COc1ccccc1[N+](=O)[O-])Nc1nc2c(s1)CCc1ccccc1-2`, for which the RP-LC retention time came out at 1030 s.

Regarding `O=S(=O)(c1cccc(F)c1)N1CCc2nc(-c3ccc(Cl)cc3)ncc2C1`, the RP-LC retention time turned out to be 1130 s.

`Cc1cc2nn(CC(=O)Nc3ccc(Cl)cc3)c(=O)n2c(N2CCCC2)n1` gave an RP-LC retention time of 802 s.

The compound `Cc1ccc(-c2nc(CCN(C)C(=O)NCCc3ccccc3)no2)cc1` came in with an RP-LC retention time of 956 s.

Compound `Cc1nc(N2CCOCC2)c2c(C(=O)N3CCN(c4cc(Cl)ccc4C)CC3)c(C)oc2n1` showed an RP-LC retention time of 983 s.

`CCCn1cc(S(=O)(=O)NCc2cccs2)c2cccnc21` yielded an RP-LC retention time of 833 s.

The compound `Cc1cc2nn(CC(=O)Nc3ccccc3F)c(=O)n2c(Nc2ccc(F)cc2)n1` displayed an RP-LC retention time of 967 s.

For the compound `O=C(NCCn1nnc2cc(C(=O)N3CCCC3)ccc21)Nc1ccccc1Cl`, the RP-LC retention time stood at 892 s.

On to `Cc1[nH]c(C(=O)N2CCC(CC(=O)NCCCOC(C)C)CC2)c(C)c1C`, for which the RP-LC retention time is 715 s.

The compound `Cc1ccc(-c2noc(C3CC3)n2)cc1S(=O)(=O)N1CCC(C(=O)N2CCc3ccccc32)CC1` displayed an RP-LC retention time of 1140 s.

`O=C(c1nc(Nc2ccc(F)cc2)c2ccccc2n1)N1CCCCCC1` returned an RP-LC retention time of 845 s.

Take `CCCCOc1ccc(-c2nc(C3CC(=O)N(c4ccc(F)cc4)C3)no2)cc1` (centres undefined): the RP-LC retention time was found to be 1240 s.

Compound `CC(=O)Nc1onc(C)c1-c1ccc(C)c(S(=O)(=O)Nc2ccc(C)cc2Cl)c1` came in with an RP-LC retention time of 864 s.

The compound `COc1ccc(-c2cc(-c3nc4c5sc6nc(C)cc(C)c6c5ncn4n3)[nH]n2)cc1` showed an RP-LC retention time of 1010 s.

For the compound `COCCn1c(CCCC(=O)N2CCN(c3ncccn3)CC2)nc2cccnc21`, the RP-LC retention time is 596 s.

`N#Cc1ccc(C(=O)N2CCOc3ccccc32)cc1` yielded an RP-LC retention time of 864 s.

`CCCN(CCC)c1nc(-c2ccc(Cl)cc2)nc2ccccc12`: the RP-LC retention time was 961 s.

The compound `Cc1cccc(NC(=O)c2cc(C(C)(C)C)n3nccc3n2)c1` displayed an RP-LC retention time of 1240 s.

Take `O=C(c1ccc(Cl)cc1)N1CCN(c2cnn3cnnc3c2)CC1`: the RP-LC retention time is 634 s.

In the case of `CN1c2ccc(F)cc2C(=O)NC12CCN(C(=O)NCc1ccc(F)cc1)CC2`, the RP-LC retention time worked out at 750 s.

For the compound `O=C1NC2(CCN(C(=O)c3ccccc3)CC2)Nc2cc(Cl)ccc21`, the RP-LC retention time came out at 729 s.

As to `COC(=O)c1c(C)[nH]c(C(=O)N2CCCC(C(=O)N3CCN(c4cc(C)ccc4C)CC3)C2)c1C` (centres undefined), the RP-LC retention time was 961 s.

As for `O=C(NC1CCN(Cc2ccccc2)CC1)c1ccc2c(=O)n3c(nc2c1)CCCC3`, the RP-LC retention time turned out to be 579 s.

As for `COc1cccc(C2CC(c3ccc(F)cc3)=NC3(CCN(C)CC3)N2)c1O` (centres undefined), the RP-LC retention time came out at 590 s.

The compound `Cc1ccc(-c2cc(C(=O)N3CCN(c4ccc(N5CCOCC5)nn4)CC3)[nH]n2)cc1C` showed an RP-LC retention time of 657 s.

For `CCCCN(C)C(=O)Cn1c(C2CC(=O)N(c3ccc(OC)cc3)C2)nc2ccccc21` (centres undefined), the RP-LC retention time worked out at 712 s.

The compound `Cc1cc(C)n(-c2nc(CC(=O)N3CCN(c4ccc(F)cc4)CC3)cs2)n1` registered an RP-LC retention time of 968 s.

With `CCCNc1cc(N2CCCC(CCC(=O)N3CCN(c4ncccn4)CC3)C2)ncn1` (centres undefined), the RP-LC retention time came out at 637 s.

For `CCOc1ccc(NC(=O)N2CCN(CCn3c(C(C)C)nc4cccnc43)CC2)cc1`, the RP-LC retention time came out at 610 s.

`CCOc1ccccc1C(=O)n1nc(C)c(S(=O)(=O)N2CCCC2)c1C` showed an RP-LC retention time of 1040 s.

In the case of `CNC(=O)C1CC(=O)N(c2ccc(C)cc2)C1` (centres undefined), the RP-LC retention time is 626 s.

As for `OC(COc1ccc(Cl)cc1)CN1CCN(c2cccc(Cl)c2)CC1` (centres undefined), the RP-LC retention time is 866 s.

As to `CCCCN1CCN(C(=O)CCc2cc3ccc(C)cc3[nH]c2=O)CC1`, the RP-LC retention time came to 628 s.

`CCOc1ccccc1CNC(=O)c1nc(N2CCOCC2)c2ccccc2n1` returned an RP-LC retention time of 738 s.

Compound `COc1ccc(NC2=NS(=O)(=O)C(c3ccc(F)cc3)=C2C)c(OC)c1` displayed an RP-LC retention time of 929 s.

`COc1ccc(CNC2=NCCNC23CCN(S(=O)(=O)c2ccc(C)cc2)CC3)cc1` registered an RP-LC retention time of 732 s.

Turning to `CC(=O)N1CCC2(CC1)Oc1ccccc1C1CC(c3ccccc3)=NN12` (centres undefined), the RP-LC retention time is 953 s.

The compound `CN1CCC(N2CCN(S(=O)(=O)c3ccccc3C(F)(F)F)CC2)C1=O` (centres undefined) yielded an RP-LC retention time of 594 s.

`CCC(=O)N1CCc2sc(C(=O)N3CCN(c4cccc(Cl)c4)CC3)cc2C1` had an RP-LC retention time of 900 s.

The compound `CCc1nc2cc(N3CCC(C(=O)NCc4ccc(N(C)C)cc4)CC3)cnc2nc1CC` yielded an RP-LC retention time of 627 s.

For `COc1ccc(OC)c(NC(=O)c2c(OC)cc(=O)n3c2CCCC3)c1`, the RP-LC retention time was 695 s.

As to `COc1cccc(-c2noc(Cn3ccn(-c4ccc(Cl)cc4)c(=O)c3=O)n2)c1OC`, the RP-LC retention time amounted to 824 s.

`CC1CCN(C(=O)C2=NN(C(C)C)c3cc(Cl)ccc3S2(=O)=O)CC1` registered an RP-LC retention time of 1020 s.

With `CCCc1noc(-c2ccnc(-n3ncc(C(=O)Nc4ccc(C)c(F)c4)c3C)c2)n1`, the RP-LC retention time worked out at 1170 s.

In the case of `Cn1cnc(S(=O)(=O)N2CCC(C(=O)NC3CCCc4ccccc43)CC2)c1` (centres undefined), the RP-LC retention time was found to be 728 s.

`C=CCn1c(C)c(CC(=O)NC2CCCC2)c(=O)n2nc(-c3ccccc3)nc12`: the RP-LC retention time stood at 684 s.

In turn, `Cc1cc2c(cc1S(=O)(=O)N1CCCC1C(=O)Nc1ccc(F)cc1F)OCC(=O)N2` (centres undefined) showed an RP-LC retention time of 774 s.

`O=S(=O)(Nc1cccc(-c2cn3ccccc3n2)c1)c1ccccc1` displayed an RP-LC retention time of 626 s.

With `Cn1nc(-c2nnc(-c3ccccc3)o2)c2c1CCN(S(=O)(=O)c1cc(F)ccc1F)C2`, the RP-LC retention time was 940 s.

As for `Nc1nc(SCc2ccccc2Cl)c2[nH]cnc2n1`, the RP-LC retention time turned out to be 680 s.

Regarding `CC(C)NC(=O)c1ncn2c1C(=O)N(C1CC1)C(C)(C(=O)NCc1ccc(F)cc1)C2` (centres undefined), the RP-LC retention time amounted to 673 s.

Turning to `Cn1cnc2cc(CNC(=O)c3ccc4cc[nH]c4c3)ccc21`, the RP-LC retention time is 603 s.
